Reference: ChEMBL document CHEMBL1147488, “Methanesulfonamide group at position-4 of the C-5-phenyl ring of 1,5-diarylpyrazole affords a potent class of cyclooxygenase-2 (COX-2) inhibitors” (Bioorg Med Chem Lett, 2004)

Assays:
[1] = molecular target: T1, Prostaglandin G/H synthase 1 (Ovis aries) (UniProt P05979); details: at 10 µM
T1 sequence (whole entry): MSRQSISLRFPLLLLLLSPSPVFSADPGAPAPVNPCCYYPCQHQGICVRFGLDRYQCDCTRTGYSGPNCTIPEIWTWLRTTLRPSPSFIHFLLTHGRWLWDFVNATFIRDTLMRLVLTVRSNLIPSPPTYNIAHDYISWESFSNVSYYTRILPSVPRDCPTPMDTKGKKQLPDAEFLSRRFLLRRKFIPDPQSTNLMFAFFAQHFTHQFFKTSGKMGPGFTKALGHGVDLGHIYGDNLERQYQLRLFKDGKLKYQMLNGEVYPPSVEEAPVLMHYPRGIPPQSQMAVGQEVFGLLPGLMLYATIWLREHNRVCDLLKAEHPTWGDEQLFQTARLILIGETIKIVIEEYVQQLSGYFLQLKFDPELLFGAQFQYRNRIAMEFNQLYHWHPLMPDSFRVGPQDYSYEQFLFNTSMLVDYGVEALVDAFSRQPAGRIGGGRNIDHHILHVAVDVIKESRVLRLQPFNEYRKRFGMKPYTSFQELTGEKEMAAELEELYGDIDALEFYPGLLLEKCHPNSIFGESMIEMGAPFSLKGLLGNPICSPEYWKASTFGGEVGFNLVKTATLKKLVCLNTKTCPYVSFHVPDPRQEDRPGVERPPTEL
Description: In vitro inhibitory activity against prostaglandin G/H synthase 1 (COX-1) from the microsomal fraction of ram seminal vesicles at 10 uM concentration

[2] = molecular target: T2, Prostaglandin G/H synthase 2 (Homo sapiens) (UniProt P35354); details: Sf9; at 10 µM;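 note: in vitro assay on recombinant human COX-2 produced in baculovirus-infected Sf9 insect cells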
T2 sequence (whole entry): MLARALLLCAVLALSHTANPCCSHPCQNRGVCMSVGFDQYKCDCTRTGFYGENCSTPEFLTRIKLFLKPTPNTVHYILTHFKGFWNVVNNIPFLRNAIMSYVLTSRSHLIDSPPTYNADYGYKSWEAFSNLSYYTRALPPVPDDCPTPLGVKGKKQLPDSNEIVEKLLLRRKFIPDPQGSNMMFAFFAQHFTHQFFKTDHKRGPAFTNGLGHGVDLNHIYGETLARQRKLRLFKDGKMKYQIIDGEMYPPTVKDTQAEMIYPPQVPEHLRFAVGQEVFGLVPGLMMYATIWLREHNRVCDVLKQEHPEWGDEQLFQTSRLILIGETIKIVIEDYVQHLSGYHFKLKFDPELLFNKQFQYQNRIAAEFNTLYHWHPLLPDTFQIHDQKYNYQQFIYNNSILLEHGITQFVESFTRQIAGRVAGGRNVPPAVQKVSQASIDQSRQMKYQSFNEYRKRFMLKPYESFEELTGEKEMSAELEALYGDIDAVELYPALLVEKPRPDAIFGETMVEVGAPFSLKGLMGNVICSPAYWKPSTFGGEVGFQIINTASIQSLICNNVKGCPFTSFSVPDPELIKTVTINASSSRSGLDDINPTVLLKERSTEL
Description: In vitro inhibitory activity against human recombinant prostaglandin G/H synthase 2 (COX-2) at 10 uM expressed in sf-9 cells infected with baculovirus

[3] = molecular target: T3, Prostaglandin G/H synthase 1 (Ovis aries, UniProt P05979); assay: In vitro inhibitory activity against prostaglandin G/H synthase 1 from the microsomal fraction of ram seminal vesicles
T3 sequence (P05979 whole entry): T1 sequence (whole entry)

Structure (SMILES) | inhibition [1] [%] | inhibition [2] [%] | IC50 [3] [µM]
CNc1ccc(-n2nc(C(F)(F)F)cc2-c2ccc(NS(C)(=O)=O)cc2)cc1 | 14 | 42 | –
CS(=O)(=O)Nc1ccc(-c2cc(C(F)F)nn2-c2ccccc2F)cc1 | 90 | 89 | –
Cc1ccc(S(=O)(=O)Nc2ccc(-c3cc(C(F)(F)F)nn3-c3ccc(Cl)cc3)cc2)cc1 | 0 | 70 | –
CC(=O)N(c1ccc(-c2cc(C(F)(F)F)nn2-c2ccc(Cl)cc2)cc1)S(C)(=O)=O | 0 | 63 | –
CS(=O)(=O)Nc1ccc(-c2cc(C(F)F)nn2-c2ccc(F)cc2)cc1 | 22 | 62 | –
CCC(=O)N(c1ccc(-c2cc(C(F)(F)F)nn2-c2ccc(Cl)cc2)cc1)S(C)(=O)=O | 18 | 65 | –
CS(=O)(=O)Nc1ccc(-c2cc(C(F)F)nn2-c2cccc(F)c2)cc1 | 97 | 67 | –
CS(=O)(=O)Nc1ccc(-c2cc(C(F)(F)F)nn2-c2cccc(Cl)c2)cc1 | 96 | 3 | –
CS(=O)(=O)Nc1ccc(-c2cc(C(F)(F)F)nn2-c2ccccc2F)cc1 | 97 | 89 | –
CN(C)c1ccc(-n2nc(C(F)(F)F)cc2-c2ccc(NS(C)(=O)=O)cc2)cc1 | 85 | 100 | 3.4
CS(=O)(=O)Nc1ccc(-c2cc(C(F)F)nn2-c2ccc(Cl)cc2)cc1 | 0 | 100 | 63
Cc1cc(-c2ccc(NS(C)(=O)=O)cc2)n(-c2ccc([N+](=O)[O-])cc2)n1 | 40 | 0 | –
CC(=O)Nc1ccc(-c2cc(C)nn2-c2ccc(Br)cc2)cc1 | 9 | 80 | 13.3
CCCC(=O)N(c1ccc(-c2cc(C(F)(F)F)nn2-c2ccc(Cl)cc2)cc1)S(C)(=O)=O | 0 | 62 | –
CS(=O)(=O)Nc1ccc(-c2cc(C(F)F)nn2-c2ccc(Cl)c(Cl)c2)cc1 | 43 | 71 | –
Cc1cc(-c2ccc(NS(C)(=O)=O)cc2)n(-c2ccc(Cl)cc2)n1 | 0 | 88 | 100
CCCC(=O)N(c1ccc(-c2cc(C(F)F)nn2-c2ccc(Cl)cc2)cc1)S(C)(=O)=O | 100 | 42 | –
CS(=O)(=O)N(c1ccc(-c2cc(C(F)(F)F)nn2-c2ccc(Cl)cc2)cc1)S(C)(=O)=O | 14 | 13 | –
CS(=O)(=O)Nc1ccc(-c2cc(C(F)(F)F)nn2-c2ccc(F)c(F)c2)cc1 | 32 | 59 | –
Cc1cc(-c2ccc(NS(C)(=O)=O)cc2)n(-c2ccc(Br)cc2)n1 | 10 | 100 | 63
CCC(=O)N(c1ccc(-c2cc(C(F)F)nn2-c2ccc(Cl)cc2)cc1)S(C)(=O)=O | 100 | 36 | –

Structure (SMILES) | inhibition [1] [%] | inhibition [2] [%] | IC50 [3] [µM]
CS(=O)(=O)Nc1ccc(-c2cc(C(F)F)nn2-c2ccccc2Cl)cc1 | 66 | 22 | –
CS(=O)(=O)Nc1ccc(-c2cc(C(F)F)nn2-c2ccccc2)cc1 | 22 | 31 | –
CS(=O)(=O)Nc1ccc(-c2cc(C(F)(F)F)nn2-c2ccccc2)cc1 | 0 | 100 | 85.3
CS(=O)(=O)Nc1ccc(-c2cc(C(F)(F)F)nn2-c2ccc(Cl)c(Cl)c2)cc1 | 10 | 70 | –
CC(=O)Nc1ccc(-c2cc(C(F)(F)F)nn2-c2ccc(S(N)(=O)=O)cc2CO)cc1 | 59 | 0 | –
CS(=O)(=O)Nc1ccc(-c2cc(C(F)(F)F)nn2-c2ccc(Cl)cc2)cc1 | 25 | 100 | 15.6
CC(=O)Nc1ccc(-c2cc(C(F)(F)F)nn2-c2ccc(Br)cc2)cc1 | 100 | 87 | 3.5
CS(=O)(=O)Nc1ccc(-c2cc(C(F)(F)F)nn2-c2ccc(S(N)(=O)=O)cc2CO)cc1 | 42 | 12 | –
Cc1cc(-c2ccc(NS(C)(=O)=O)cc2)n(-c2ccc([N+](=O)[O-])cn2)n1 | 0 | 13 | –
CS(=O)(=O)Nc1ccc(-c2cc(C(F)(F)F)nn2-c2ccc([N+](=O)[O-])cc2)cc1 | 34 | 0 | –
CS(=O)(=O)Nc1ccc(-c2cc(C(F)F)nn2-c2ccc(S(N)(=O)=O)cc2CO)cc1 | 100 | 0 | –
CS(=O)(=O)Nc1ccc(-c2cc(C(F)(F)F)nn2-c2ccc(Br)cc2)cc1 | 88 | 100 | 4.9
CS(=O)(=O)Nc1ccc(-c2cc(C(F)(F)F)nn2-c2ccc([N+](=O)[O-])cn2)cc1 | 0 | 13 | –
Cc1cc(-c2ccc(NS(C)(=O)=O)cc2)n(-c2ccccc2)n1 | 34 | 7 | –
CS(=O)(=O)Nc1ccc(-c2cc(C(F)(F)F)nn2-c2ccc(F)cc2)cc1 | 6 | 65 | 20.3
CS(=O)(=O)Nc1ccc(-c2cc(C(F)(F)F)nn2-c2cccc(F)c2)cc1 | 49 | 70 | –
CS(=O)(=O)Nc1ccc(-c2cc(C(F)F)nn2-c2ccc(F)c(F)c2)cc1 | 11 | 36 | –
CS(=O)(=O)Nc1ccc(-c2cc(C(F)(F)F)nn2-c2ccc(N)cc2)cc1 | 22 | 69 | 31.6
CC(=O)N(c1ccc(-c2cc(C(F)F)nn2-c2ccc(Cl)cc2)cc1)S(C)(=O)=O | 66 | 17 | –
Cc1cc(-c2ccc(NS(C)(=O)=O)cc2)n(-c2ccc(F)cc2)n1 | 0 | 25 | –
